In paper PMC9060145 (Skin Health and Disease, 2021):

Experiments:
MR = biological target: T1, MR (Homo sapiens, UniProt P08235); assay: Nuclear receptor profiling, luciferase reporter in recombinant HeLa cells; assay type: cell-based; conditions: IA = Inactive
T1 construct: expressed in transfected cells; host or cells: recombinant HeLa cell lines
T1 sequence (P08235 1-984): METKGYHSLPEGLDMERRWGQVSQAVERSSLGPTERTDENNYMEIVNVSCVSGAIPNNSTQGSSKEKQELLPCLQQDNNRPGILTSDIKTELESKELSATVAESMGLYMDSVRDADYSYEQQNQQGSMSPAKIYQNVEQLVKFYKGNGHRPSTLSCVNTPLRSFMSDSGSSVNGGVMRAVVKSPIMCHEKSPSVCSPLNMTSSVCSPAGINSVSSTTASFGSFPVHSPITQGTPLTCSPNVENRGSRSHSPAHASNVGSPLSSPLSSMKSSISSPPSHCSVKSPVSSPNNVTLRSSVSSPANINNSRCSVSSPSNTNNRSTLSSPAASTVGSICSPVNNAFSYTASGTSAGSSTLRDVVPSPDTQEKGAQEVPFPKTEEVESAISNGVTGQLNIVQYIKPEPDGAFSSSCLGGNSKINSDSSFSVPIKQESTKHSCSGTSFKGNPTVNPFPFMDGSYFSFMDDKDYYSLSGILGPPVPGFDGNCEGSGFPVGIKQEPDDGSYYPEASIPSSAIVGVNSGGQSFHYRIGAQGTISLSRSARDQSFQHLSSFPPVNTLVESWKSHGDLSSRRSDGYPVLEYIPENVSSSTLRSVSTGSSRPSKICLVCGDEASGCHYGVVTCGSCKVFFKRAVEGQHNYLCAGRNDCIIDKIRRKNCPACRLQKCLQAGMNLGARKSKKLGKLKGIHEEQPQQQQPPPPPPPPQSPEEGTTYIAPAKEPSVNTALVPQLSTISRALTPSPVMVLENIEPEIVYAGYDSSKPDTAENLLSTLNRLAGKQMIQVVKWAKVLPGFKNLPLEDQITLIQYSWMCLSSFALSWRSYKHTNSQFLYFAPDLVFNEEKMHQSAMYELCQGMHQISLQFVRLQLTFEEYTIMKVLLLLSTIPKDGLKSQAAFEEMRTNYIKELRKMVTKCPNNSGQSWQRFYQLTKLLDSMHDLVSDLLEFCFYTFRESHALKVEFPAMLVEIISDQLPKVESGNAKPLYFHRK
Method: (§1) Nuclear receptor profiling, excluding retinoid X receptor (RXR), was previously described in detail.[24] Briefly, profiling was done using the Steady‐Glo luciferase assay kit (Promega, E2550) in recombinant HeLa cell lines expressing the respective receptors. Compounds were treated at nine doses (n = 2/dose) from 0.00015–10 µM. Data were normalized to minimum and maximum controls and 4‐parameter logistic regression fitting (Figure S2) was performed in XLfit software (IDBS).

LXRβ = biological target: T2, LXRβ (Homo sapiens, UniProt P55055); assay: as above; assay type: cell-based
T2 construct: expressed in transfected cells; host or cells: recombinant HeLa cell lines
T2 sequence (P55055 1-460): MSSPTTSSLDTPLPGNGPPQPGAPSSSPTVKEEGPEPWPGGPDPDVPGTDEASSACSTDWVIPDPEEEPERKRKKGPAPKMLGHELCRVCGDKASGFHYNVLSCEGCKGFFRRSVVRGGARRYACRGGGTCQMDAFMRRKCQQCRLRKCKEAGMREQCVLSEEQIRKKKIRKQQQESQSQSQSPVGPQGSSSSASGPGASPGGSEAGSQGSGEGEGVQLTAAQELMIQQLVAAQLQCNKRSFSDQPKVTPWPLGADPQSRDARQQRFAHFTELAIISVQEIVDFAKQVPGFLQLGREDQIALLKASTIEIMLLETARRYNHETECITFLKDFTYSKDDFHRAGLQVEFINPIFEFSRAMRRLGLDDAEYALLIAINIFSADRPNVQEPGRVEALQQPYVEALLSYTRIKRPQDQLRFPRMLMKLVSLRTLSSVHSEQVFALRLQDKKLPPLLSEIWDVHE
Method: as §1

CYP19 = biological target: T3, CYP19 (Homo sapiens, UniProt P11511); assay: Qualitative CYP19 screening, CYP19 Supersomes, HPLC-MS/MS; assay type: biochemical
T3 construct: purchased Corning (Woburn, MA)
T3 sequence (P11511 1-503): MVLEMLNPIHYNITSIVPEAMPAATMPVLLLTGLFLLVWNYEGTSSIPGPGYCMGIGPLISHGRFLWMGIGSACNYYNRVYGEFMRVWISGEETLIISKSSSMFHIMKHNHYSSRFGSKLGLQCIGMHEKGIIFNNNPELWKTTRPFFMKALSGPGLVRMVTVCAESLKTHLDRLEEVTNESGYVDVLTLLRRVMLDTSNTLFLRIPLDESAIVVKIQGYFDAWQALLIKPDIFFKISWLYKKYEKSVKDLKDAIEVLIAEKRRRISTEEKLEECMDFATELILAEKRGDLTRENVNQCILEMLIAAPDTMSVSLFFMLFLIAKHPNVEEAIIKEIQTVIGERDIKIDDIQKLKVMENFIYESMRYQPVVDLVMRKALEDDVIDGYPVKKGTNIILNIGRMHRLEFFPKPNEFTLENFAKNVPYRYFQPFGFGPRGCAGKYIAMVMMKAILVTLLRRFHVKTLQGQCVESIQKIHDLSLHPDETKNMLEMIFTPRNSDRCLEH
Method: (§2) CYP450 inhibition assays (excluding CYP19 and 1 µM CYP2C8) were performed as previously described.[31] Substrate metabolite formation was measured by HPLC‐MS/MS. Percent of control activity was determined by comparing metabolite peak areas with and without test compound. Qualitative screening of CYP2C8 (1 µM) and CYP19 is described in detail in Supporting Information. Reference compound IC50 values were determined by non‐linear regression analysis using Hill equation curve fitting.
In vitro CYP19 screening was carried out in triplicate using a modified HPLC-MS/MS protocol based on methodology provided by Admescope Ltd. DMSO stock solutions of test compounds, positive control liarozole, androstenedione substrate and solvent control were diluted with 100 mM phosphate buffer (pH 7.4) such that DMSO content in final assay conditions was 1% in a volume of 200 µL. Briefly, to a microfuge tube was added 1 µM substrate, 1 mM NAPDH, and 0.1-1 µM test compounds (final concentrations after enzyme addition) in phosphate buffer before pre-incubating for 2 min at 37 °C. CYP19/CYP450 reductase Supersomes™ enzyme (50 µL, 1.5 pmol/mL) was added to each tube, gently mixed, then incubated at 37 °C for 30 min. The reaction was quenched with an equal volume of acetonitrile containing cortisone internal standard (100 nM). […]

RARβ = biological target: T4, RARβ (Homo sapiens, UniProt P10826); assay: Nuclear receptor profiling, luciferase reporter in recombinant HeLa cells; assay type: cell-based
T4 construct: expressed in transfected cells; host or cells: recombinant HeLa cell lines
T4 sequence (P10826 1-455): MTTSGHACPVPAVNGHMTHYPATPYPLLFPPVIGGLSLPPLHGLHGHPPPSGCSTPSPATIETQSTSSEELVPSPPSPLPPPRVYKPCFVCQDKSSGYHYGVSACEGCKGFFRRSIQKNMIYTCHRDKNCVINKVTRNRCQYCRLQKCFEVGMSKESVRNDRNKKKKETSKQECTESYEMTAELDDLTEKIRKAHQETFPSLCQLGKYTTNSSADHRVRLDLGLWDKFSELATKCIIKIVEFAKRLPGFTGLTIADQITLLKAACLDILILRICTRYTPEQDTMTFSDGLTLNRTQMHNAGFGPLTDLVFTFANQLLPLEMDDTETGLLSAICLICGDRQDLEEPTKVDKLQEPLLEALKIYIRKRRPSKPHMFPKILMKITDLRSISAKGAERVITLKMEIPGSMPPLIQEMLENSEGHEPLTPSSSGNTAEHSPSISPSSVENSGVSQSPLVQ
Method: as §1

RARα = biological target: T5, RARα (Homo sapiens, UniProt P10276); assay: as above; assay type: cell-based
T5 construct: expressed in transfected cells; host or cells: recombinant HeLa cell lines
T5 sequence (P10276 1-462): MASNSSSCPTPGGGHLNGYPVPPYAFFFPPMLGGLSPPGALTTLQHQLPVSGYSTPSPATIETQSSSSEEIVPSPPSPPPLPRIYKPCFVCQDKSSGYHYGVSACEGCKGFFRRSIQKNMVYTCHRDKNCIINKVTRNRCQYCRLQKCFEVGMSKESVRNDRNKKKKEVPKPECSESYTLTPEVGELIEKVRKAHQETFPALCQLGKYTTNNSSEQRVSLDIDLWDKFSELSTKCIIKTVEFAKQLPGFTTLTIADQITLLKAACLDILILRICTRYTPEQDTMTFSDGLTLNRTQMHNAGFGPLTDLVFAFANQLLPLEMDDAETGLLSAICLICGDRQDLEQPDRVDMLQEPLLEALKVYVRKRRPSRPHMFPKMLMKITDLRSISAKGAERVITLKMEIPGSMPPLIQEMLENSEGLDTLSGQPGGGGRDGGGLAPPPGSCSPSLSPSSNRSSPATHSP
Method: as §1

RARγ = biological target: T6, RARγ (Homo sapiens, UniProt P13631); assay: as above; assay type: cell-based; conditions: IA = Inactive
T6 construct: expressed in transfected cells; host or cells: recombinant HeLa cell lines
T6 sequence (P13631 1-454): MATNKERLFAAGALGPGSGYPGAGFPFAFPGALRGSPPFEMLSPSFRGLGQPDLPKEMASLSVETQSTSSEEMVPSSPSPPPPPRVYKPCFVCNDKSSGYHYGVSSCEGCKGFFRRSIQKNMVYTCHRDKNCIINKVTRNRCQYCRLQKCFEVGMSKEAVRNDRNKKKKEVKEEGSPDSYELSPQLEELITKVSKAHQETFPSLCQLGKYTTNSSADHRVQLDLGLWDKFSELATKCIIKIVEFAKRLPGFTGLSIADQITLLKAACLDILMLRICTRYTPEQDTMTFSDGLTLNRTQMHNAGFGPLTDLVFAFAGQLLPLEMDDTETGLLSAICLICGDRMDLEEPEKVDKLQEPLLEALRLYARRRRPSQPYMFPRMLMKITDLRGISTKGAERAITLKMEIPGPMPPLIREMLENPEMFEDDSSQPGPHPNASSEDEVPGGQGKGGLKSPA
Method: as §1

CYP2B6 = biological target: T7, CYP2B6 (Homo sapiens, UniProt P20813); assay: CYP450 inhibition assay, human liver microsomes; assay type: biochemical
T7 construct: from tissue; host or cells: human liver microsomes (per the earlier reading and the cited method)
T7 sequence (P20813 1-491): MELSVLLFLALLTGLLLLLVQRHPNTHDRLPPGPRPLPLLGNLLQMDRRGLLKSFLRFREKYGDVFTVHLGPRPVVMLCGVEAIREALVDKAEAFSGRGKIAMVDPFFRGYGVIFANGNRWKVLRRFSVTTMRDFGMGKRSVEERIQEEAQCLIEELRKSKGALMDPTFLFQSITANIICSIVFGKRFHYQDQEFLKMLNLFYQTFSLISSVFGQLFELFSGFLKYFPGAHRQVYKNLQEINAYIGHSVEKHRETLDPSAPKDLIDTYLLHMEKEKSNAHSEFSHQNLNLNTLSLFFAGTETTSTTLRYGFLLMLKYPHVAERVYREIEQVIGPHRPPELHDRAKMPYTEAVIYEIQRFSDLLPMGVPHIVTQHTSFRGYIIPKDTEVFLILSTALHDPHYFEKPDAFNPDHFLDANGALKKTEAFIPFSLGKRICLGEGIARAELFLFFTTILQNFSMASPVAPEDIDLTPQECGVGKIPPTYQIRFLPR
Method: as §2

CYP2C19 = biological target: T8, CYP2C19 (Homo sapiens, UniProt P33261); assay: CYP450 inhibition assay, human liver microsomes; assay type: biochemical; conditions: substrate omeprazole
T8 construct: from tissue; host or cells: human liver microsomes (per the earlier reading and the cited method)
T8 sequence (P33261 whole entry): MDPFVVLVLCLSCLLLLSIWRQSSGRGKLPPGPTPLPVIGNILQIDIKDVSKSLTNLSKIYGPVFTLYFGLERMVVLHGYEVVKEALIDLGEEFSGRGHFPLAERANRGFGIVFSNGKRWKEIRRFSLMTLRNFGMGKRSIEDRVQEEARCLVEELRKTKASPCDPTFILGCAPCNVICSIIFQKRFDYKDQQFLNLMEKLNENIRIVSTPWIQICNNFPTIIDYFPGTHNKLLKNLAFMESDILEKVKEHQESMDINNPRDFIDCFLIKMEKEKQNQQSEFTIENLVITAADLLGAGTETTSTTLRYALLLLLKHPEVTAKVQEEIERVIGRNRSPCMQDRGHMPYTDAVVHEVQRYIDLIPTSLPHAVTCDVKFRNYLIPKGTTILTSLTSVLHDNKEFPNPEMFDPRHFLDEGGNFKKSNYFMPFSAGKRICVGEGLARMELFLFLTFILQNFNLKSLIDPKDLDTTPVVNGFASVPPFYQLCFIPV

`C[C@]12C[C@H](O)[C@H]3[C@@H](CCC4=CC(=O)CC[C@@]43C)[C@@H]1CC[C@@H]2C(=O)CO` [Corticosterone] showed an EC50 (MR) of 0.4 nM.
`O=C(O)Cc1cccc(OCCCN(Cc2cccc(C(F)(F)F)c2Cl)CC(c2ccccc2)c2ccccc2)c1` [GW3965] gave an EC50 (LXRβ) of 200 nM.
For `Clc1cccc(C(c2ccc3[nH]cnc3c2)n2ccnc2)c1` (stereo not shown) [Liarozole], the inhibition at 0.1 µM (CYP19; 0.1 µM compound, substrate androstenedione, calculated from decrease in metabolite formation, read-out: % Inhibition (reduction of CYP19 activity)) was 61.1% and the inhibition at 1 µM (CYP19; reference concentration 1000 nM, androstenedione 1000 nM, 30 min, 37°C) was 83.8%.
`CC1(C)CCSc2ccc(C#Cc3ccc(C(=O)O)cn3)cc21` [Tazarotenic acid] gave an EC50 (RARβ) of 3.2 nM, an EC50 (RARα) of 32 nM and an EC50 (RARγ) of 25 nM.
`COC(=O)[C@H](c1ccccc1Cl)N1CCc2sccc2C1` [clopidogrel] was tested, and the IC50 (CYP2B6) was 370 nM and the “nH (hill coefficient)” value (CYP2B6; substrate bupropion) was 1.3.
In the case of `CCN(CC)CC#CCOC(=O)C(O)(c1ccccc1)C1CCCCC1` (stereo not shown) [oxybutynin], the “nH (hill coefficient)” value (CYP2C19) is reported as 0.8.
